From patent US11254663B2 (BRISTOL-MYERS SQUIBB COMPANY, priority 2019, dated 2022)
pEC50: −log10 of the molar value.

Target: FXR (Homo sapiens (Human), UniProt Q96RI1)
Test: transient human FXR/Gal4-luciferase reporter assay
Type: cell-based
Details: not given
Method in brief: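 HEK293 cells stably carrying a 5×Gal4 response element–firefly luciferase reporter were transiently transfected overnight with a Gal4 DBD–human FXR LBD fusion plasmid. Compound was added in DMSO and cells were incubated overnight at 37 °C, 5% CO2. Activity was read as Steady-Glo luminescence.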

Chain of FXR (Q96RI1 262-486): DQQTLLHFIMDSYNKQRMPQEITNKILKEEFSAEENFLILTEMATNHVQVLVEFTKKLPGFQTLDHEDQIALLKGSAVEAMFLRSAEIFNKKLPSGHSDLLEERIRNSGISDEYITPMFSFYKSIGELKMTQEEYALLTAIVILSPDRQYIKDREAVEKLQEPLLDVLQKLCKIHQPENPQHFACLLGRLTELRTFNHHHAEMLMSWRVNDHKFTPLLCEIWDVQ

In order of falling pEC50:
1. Cc1nc2ccc(-c3cccc(N(CC45CCC(c6noc(C(F)F)n6)(CC4)CC5)C(=O)C45CC(F)(C4)C5)c3)cc2s1 [Example 462, N-((4-(5-(difluoromethyl)-1,2,4-oxadiazol-3-yl)bicyclo[2.2.2]octan-1-yl)methyl)-3-fluoro-N-(3-(2-methylbenzo[d]thiazol-6-yl)phenyl)bicyclo[1.1.1]pentane-1-carboxamide]  6.97
2. Cc1nc2ccc(-c3cccc(N(CC45CCC(c6nc(C(F)F)no6)(CC4)CC5)C(=O)C45CC(F)(C4)C5)c3)cc2s1 [Example 471, N-((4-(3-(difluoromethyl)-1,2,4-oxadiazol-5-yl)bicyclo[2.2.2]octan-1-yl)methyl)-3-fluoro-N-(3-(2-methylbenzo[d]thiazol-6-yl)phenyl)bicyclo[1.1.1]pentane-1-carboxamide]  6.87
3. CCOc1ncc(-c2cccc(N(CC34CCC(c5nc(C(F)F)no5)(CC3)CC4)C(=O)C34CC(F)(C3)C4)c2)cn1 [Example 470, N-((4-(3-(difluoromethyl)-1,2,4-oxadiazol-5-yl)bicyclo[2.2.2]octan-1-yl)methyl)-N-(3-(2-ethoxypyrimidin-5-yl)phenyl)-3-fluorobicyclo[1.1.1]pentane-1-carboxamide]  6.79
4. O=C(N(CC12CCC(c3noc(C(F)F)n3)(CC1)CC2)c1cccc(-c2ccc(OC(F)F)cc2)c1)C12CC(F)(C1)C2 [Example 465, N-(4′-(difluoromethoxy)-[1,1′-biphenyl]-3-yl)-N-((4-(5-(difluoromethyl)-1,2,4-oxadiazol-3-yl)bicyclo[2.2.2]octan-1-yl)methyl)-3-fluorobicyclo[1.1.1]pentane-1-carboxamide]  6.74
5. O=C(N(CC12CCC(c3nc(C(F)F)no3)(CC1)CC2)c1cccc(-c2ccc(OC(F)F)cc2)c1)C12CC(F)(C1)C2 [Example 468, N-(4′-(difluoromethoxy)-[1,1′-biphenyl]-3-yl)-N-((4-(3-(difluoromethyl)-1,2,4-oxadiazol-5-yl)bicyclo[2.2.2]octan-1-yl)methyl)-3-fluorobicyclo[1.1.1]pentane-1-carboxamide]  6.74
6. O=C(N(CC12CCC(c3noc(C(F)F)n3)(CC1)CC2)c1cccc(-c2cnc(C3CC3)nc2)c1)C12CC(F)(C1)C2 [Example 463, N-(3-(2-cyclopropylpyrimidin-5-yl)phenyl)-N-((4-(5-(difluoromethyl)-1,2,4-oxadiazol-3-yl)bicyclo[2.2.2]octan-1-yl)methyl)-3-fluorobicyclo[1.1.1]pentane-1-carboxamide]  6.67
7. CS(=O)(=O)Nc1ccc(-c2cccc(N(CC34CCC(c5noc(C(F)F)n5)(CC3)CC4)C(=O)C34CC(F)(C3)C4)c2)cc1 [Example 460, N-((4-(5-(difluoromethyl)-1,2,4-oxadiazol-3-yl)bicyclo[2.2.2]octan-1-yl)methyl)-3-fluoro-N-(4′-(methylsulfonamido)-[1,1′-biphenyl]-3-yl)bicyclo[1.1.1]pentane-1-carboxamide]  6.47
8. CC(C)(C)c1nc(C23CCC(CN(C(=O)C45CC(F)(C4)C5)c4cncc(-c5ccc6[nH]c(=O)oc6c5)c4)(CC2)CC3)no1 [Example 479, N-((4-(5-(tert-butyl)-1,2,4-oxadiazol-3-yl)bicyclo[2.2.2]octan-1-yl)methyl)-3-fluoro-N-(5-(2-oxo-2,3-dihydrobenzo[d]oxazol-6-yl)pyridin-3-yl)bicyclo[1.1.1]pentane-1-carboxamide]  6.44
9. CCOc1ccc(-c2cncc(N(CC34CCC(c5nc(C(C)(C)C)no5)(CC3)CC4)C(=O)C34CC(F)(C3)C4)c2)cn1 [Example 477, N-((4-(3-(tert-butyl)-1,2,4-oxadiazol-5-yl)bicyclo[2.2.2]octan-1-yl)methyl)-N-(6′-ethoxy-[3,3′-bipyridin]-5-yl)-3-fluorobicyclo[1.1.1]pentane-1-carboxamide]  6.31
10. CC(C)(C)c1noc(C23CCC(CN(C(=O)C45CC(F)(C4)C5)c4cncc(-c5cnc(C6CC6)nc5)c4)(CC2)CC3)n1 [Example 473, N-((4-(3-(tert-butyl)-1,2,4-oxadiazol-5-yl)bicyclo[2.2.2]octan-1-yl)methyl)-N-(5-(2-cyclopropylpyrimidin-5-yl)pyridin-3-yl)-3-fluorobicyclo[1.1.1]pentane-1-carboxamide]  6.30
11. Cc1nc2ccc(-c3cncc(N(CC45CCC(c6nc(C(C)(C)C)no6)(CC4)CC5)C(=O)C45CC(F)(C4)C5)c3)cc2s1 [Example 474, N-((4-(3-(tert-butyl)-1,2,4-oxadiazol-5-yl)bicyclo[2.2.2]octan-1-yl)methyl)-3-fluoro-N-(5-(2-methylbenzo[d]thiazol-6-yl)pyridin-3-yl)bicyclo[1.1.1]pentane-1-carboxamide]  6.27
12. CCOc1ccc(-c2cncc(N(CC34CCC(c5nc(C(C)(C)C)no5)(CC3)CC4)C(=O)C34CC(F)(C3)C4)c2)cc1 [Example 476, N-((4-(3-(tert-butyl)-1,2,4-oxadiazol-5-yl)bicyclo[2.2.2]octan-1-yl)methyl)-N-(5-(4-ethoxyphenyl)pyridin-3-yl)-3-fluorobicyclo[1.1.1]pentane-1-carboxamide]  6.25
13. CCOc1ccc(-c2cccc(N(CC34CCC(c5noc(C(F)F)n5)(CC3)CC4)C(=O)C34CC(F)(C3)C4)c2)cc1 [Example 461, N-((4-(5-(difluoromethyl)-1,2,4-oxadiazol-3-yl)bicyclo[2.2.2]octan-1-yl)methyl)-N-(4′-ethoxy-[1,1′-biphenyl]-3-yl)-3-fluorobicyclo[1.1.1]pentane-1-carboxamide]  6.22
14. O=C(N(CC12CCC(c3noc(C(F)F)n3)(CC1)CC2)c1cccc(-c2cnc(C(F)(F)F)nc2)c1)C12CC(F)(C1)C2 [Example 464, N-((4-(5-(difluoromethyl)-1,2,4-oxadiazol-3-yl)bicyclo[2.2.2]octan-1-yl)methyl)-3-fluoro-N-(3-(2-(trifluoromethyl)pyrimidin-5-yl)phenyl)bicyclo[1.1.1]pentane-1-carboxamide]  6.18
15. CS(=O)(=O)Nc1ccc(-c2cccc(N(CC34CCC(c5nc(C(F)F)no5)(CC3)CC4)C(=O)C34CC(F)(C3)C4)c2)cc1 [Example 469, N-((4-(3-(difluoromethyl)-1,2,4-oxadiazol-5-yl)bicyclo[2.2.2]octan-1-yl)methyl)-3-fluoro-N-(4′-(methylsulfonamido)-[1,1′-biphenyl]-3-yl)bicyclo[1.1.1]pentane-1-carboxamide]  6.18
16. CC(C)(C)c1nc(C23CCC(CN(C(=O)C45CC(F)(C4)C5)c4cncc(-c5cnc6nc(C7CC7)sc6c5)c4)(CC2)CC3)no1 [Example 480, N-((4-(5-(tert-butyl)-1,2,4-oxadiazol-3-yl)bicyclo[2.2.2]octan-1-yl)methyl)-N-(5-(2-cyclopropylthiazolo[4,5-b]pyridin-6-yl)pyridin-3-yl)-3-fluorobicyclo[1.1.1]pentane-1-carboxamide]  6.01
17. CC(C)(C)c1noc(C23CCC(CN(C(=O)C45CC(F)(C4)C5)c4cncc(-c5ccc(NS(C)(=O)=O)cc5)c4)(CC2)CC3)n1 [Example 475, N-((4-(3-(tert-butyl)-1,2,4-oxadiazol-5-yl)bicyclo[2.2.2]octan-1-yl)methyl)-3-fluoro-N-(5-(4-(methylsulfonamido)phenyl)pyridin-3-yl)bicyclo[1.1.1]pentane-1-carboxamide]  5.80
18. O=C(N(CC12CCC(c3nc(C(F)F)no3)(CC1)CC2)c1cccc(-c2cnc(C(F)(F)F)nc2)c1)C12CC(F)(C1)C2 [Example 467, N-((4-(3-(difluoromethyl)-1,2,4-oxadiazol-5-yl)bicyclo[2.2.2]octan-1-yl)methyl)-3-fluoro-N-(3-(2-(trifluoromethyl)pyrimidin-5-yl)phenyl)bicyclo[1.1.1]pentane-1-carboxamide]  5.68

Same assay, conditions: Gal4-hFXR fusion construct, HEK293 reporter cells; response relative to 8 μM GW-4064

In order of falling pEC50:
1. CCOc1ncc(-c2cccc(N(CC34CCC(c5noc(C(F)F)n5)(CC3)CC4)C(=O)C34CC(F)(C3)C4)c2)cn1 [Example 459, N-((4-(5-(difluoromethyl)-1,2,4-oxadiazol-3-yl)bicyclo[2.2.2]octan-1-yl)methyl)-N-(3-(2-ethoxypyrimidin-5-yl)phenyl)-3-fluorobicyclo[1.1.1]pentane-1-carboxamide]  6.72
2. CC(C)(C)c1nc(C23CCC(CN(C(=O)C45CC(F)(C4)C5)c4cccc(-c5cnc6nc(C7CC7)sc6c5)c4)(CC2)CC3)no1 [Example 458, N-((4-(5-(tert-butyl)-1,2,4-oxadiazol-3-yl)bicyclo[2.2.2]octan-1-yl)methyl)-N-(3-(2-cyclopropylthiazolo[4,5-b]pyridin-6-yl)phenyl)-3-fluorobicyclo[1.1.1]pentane-1-carboxamide]  6.60
3. O=C(N(CC12CCC(c3nc(C(F)F)no3)(CC1)CC2)c1cccc(-c2cnc(C3CC3)nc2)c1)C12CC(F)(C1)C2 [Example 466, N-(3-(2-cyclopropylpyrimidin-5-yl)phenyl)-N-((4-(3-(difluoromethyl)-1,2,4-oxadiazol-5-yl)bicyclo[2.2.2]octan-1-yl)methyl)-3-fluorobicyclo[1.1.1]pentane-1-carboxamide]  6.46
4. CCOc1ncc(-c2cncc(N(CC34CCC(c5nc(C(C)(C)C)no5)(CC3)CC4)C(=O)C34CC(F)(C3)C4)c2)cn1 [Example 472, N-((4-(3-(tert-butyl)-1,2,4-oxadiazol-5-yl)bicyclo[2.2.2]octan-1-yl)methyl)-N-(5-(2-ethoxypyrimidin-5-yl)pyridin-3-yl)-3-fluorobicyclo[1.1.1]pentane-1-carboxamide]  6.12
5. CCOc1ncc(-c2cncc(N(CC34CCC(c5noc(C(C)(C)C)n5)(CC3)CC4)C(=O)C34CC(F)(C3)C4)c2)cn1 [Example 478, N-((4-(5-(tert-butyl)-1,2,4-oxadiazol-3-yl)bicyclo[2.2.2]octan-1-yl)methyl)-N-(5-(2-ethoxypyrimidin-5-yl)pyridin-3-yl)-3-fluorobicyclo[1.1.1]pentane-1-carboxamide]  5.96
